Measurements: US20260355144A1, “METAP2 INHIBITORS FOR THE TREATMENT OF PULMONARY FIBROSIS” (SynDevRx , Inc., priority 2022, published 2026)

What was measured:
Format in all cases: in vivo, C57BL/6 mice
[1] = tested on: aged, male, bleomycin-treated mice; test: Respiratory function by whole-body plethysmography (PenH, respiratory rate), Example 1; settings: FIG. 3, day 20 post BLM; SDX-7320 8 mg/kg SC Q4D; nintedanib 50 mg/kg PO QD; pirfenidone 100 mg/kg PO BID
Protocol: Animals: Aged, male C57BL/6 mice from Jackson Laboratories, 72 weeks old at the time of randomization were used in this study.
Mice in treatment groups 1 and 2 were administered a vehicle control subcutaneously once every 4 days (Q4D) from day 7 to day 21. […]
Respiratory Function: Respiratory function of the mice were measured using plethysmography. […] After the acclimatization period, the baseline functional respiratory parameters were measured by the whole-body plethysmograph (VivoFlow by SCIREQ) on Day 6 (before treatment introduction and process to the randomization), Days 13 and 20, post-BLM administration. […] The functional respiratory parameters analyzed include respiratory rate and PenH (pulmonary congestion index). […]

[2] = tested on: aged, male, bleomycin-treated mice; test: Wet lung weight (edema), Example 1; settings: FIG. 6, day 21, compared to BLM-treated mice; SDX-7320 8 mg/kg SC Q4D; nintedanib 50 mg/kg PO QD; pirfenidone 100 mg/kg PO BID
Protocol: (§1) Treatment: seven groups of mice were treated as put forth in Table A. Mice in groups 2-7 were challenged with bleomycin solution on Day 0 of the study by a single oropharyngeal installation of bleomycin solution such that the mice were given 1.5 U/kg based on the average body weight of the animals. On day 6 of the study, all mice were randomized based on body weight loss plus their PenH value (see below) as measured on Day 6.
Mice in treatment groups 1 and 2 were administered a vehicle control subcutaneously once every 4 days (Q4D) from day 7 to day 21. Mice in treatment group 3 were administered SDX-7320 subcutaneously Q4D from day 7 to day 21 at a dose of 8 mg/kg (i.e., 4 doses). Mice in treatment group 4 were administered pirfenidone orally (PO) twice a day (BID) from day 7 to day 21 at a dose of 100 mg/kg. Mice in treatment group 5 were administered nintedanib orally (PO) once a day (QD) from day 7 to day 21 at a dose of 50 mg/kg. […]
Lung weight: Lungs were harvested, and the wet lung weights (signifying edema) were recorded.
Statistical Analysis: All parameters were analyzed in the same manner and results were expressed as means±SEM with Graph Pad Prism Software version 8.0 (San Diego, CA, USA). […]

[3] = tested on: aged, male, bleomycin-treated mice; test: Automated histopathological analysis of lung samples, Example 1
Protocol: as §1
Mice in treatment groups 1 and 2 were administered a vehicle control subcutaneously once every 4 days (Q4D) from day 7 to day 21. Mice in treatment group 3 were administered SDX-7320 subcutaneously Q4D from day 7 to day 21 at a dose of 8 mg/kg (i.e., 4 doses). Mice in treatment group 4 were administered pirfenidone orally (PO) twice a day (BID) from day 7 to day 21 at a dose of 100 mg/kg. […]
Histopathological Analysis: Automatic quantification of morphological features of pulmonary fibrosis were performed using MorphoQuant™ (Biocellvia, France), an automated AI-based digital pathology software for quantification, from the digitalized images (scans) of PSR-stained or antibody labeled lung sections. MorphoQuant™ uses principles of morphometric analysis to detect and quantify specific lung disease features from histological slides (Gilhodes et al. 2017; Michaudel, Fauconnier, et al. 2018). […]

COC(=O)c1ccc2c(c1)NC(=O)/C2=C(\Nc1ccc(N(C)C(=O)CN2CCN(C)CC2)cc1)c1ccccc1 [nintedanib, Methyl (Z)-3-[[[4-[N-methyl-2-(4-methylpiperazin-1-yl)acetamido]phenyl]amino](phenyl)methylene]-2-oxoindoline-6-carboxylate]
pulmonary congestion (PenH) [1]: increased the pulmonary congestion
lung weight (wet) [2]: did not significantly reduce lung weight
deposition of collagen in lung tissue ([3]; FIG. 22 and Table C, COL1A1, following exposure to bleomycin, SDX-7320 8 mg/kg SC Q4D, nintedanib 50 mg/kg PO QD): almost no activity
COL1A1 area (%) ([3]; Table C/FIG. 22, aged male mice, bleomycin 1.5 U/kg oropharyngeal, treatment day 7 to 21, SDX 8 mg/kg SC Q4D, Nin 50 mg/kg PO QD, ab270993 antibody labeled): 1.387 ± 1.638%

Cc1ccc(=O)n(-c2ccccc2)c1 [pirfenidone, 5-Methyl-1-phenyl-1H-pyridin-2-one]
lung weight (wet) [2]: did not significantly reduce lung weight
